Source: ChEMBL document CHEMBL1150061, “Isolation of 9-Dihydro-13-acetylbaccatin III from Taxus canadensis” (J Nat Prod, 1992)
In brackets after ≈: the same amount, converted by molar mass.

System: P388
Assay: Antiproliferative activity against mouse P388 cells by MTT assay
Format: functional, cell-based

Structure (SMILES)	IC50 [µg/mL]
CC(=O)O[C@H]1C[C@@]2(O)[C@@H](OC(=O)c3ccccc3)[C@@H]3[C@]4(OC(C)=O)CO[C@@H]4C[C@H](O)[C@@]3(C)[C@@H](O)[C@H](OC(C)=O)C(=C1C)C2(C)C	20 (≈ 31.7 µM)
CC(=O)O[C@H]1C(=O)[C@@]2(C)[C@H]([C@H](OC(=O)c3ccccc3)[C@]3(O)C[C@H](OC(=O)[C@H](O)[C@@H](NC(=O)c4ccccc4)c4ccccc4)C(C)=C1C3(C)C)[C@]1(OC(C)=O)CO[C@@H]1C[C@@H]2O [PACLITAXEL]	0.05 (≈ 0.0586 µM)
